We go through 19 molecules from patent publication US20210300936A1, “PYRAZOLOTRIAZOLOPYRIMIDINE DERIVATIVES AS A2A RECEPTOR ANTAGONIST” (BEIGENE, LTD., priority 2018, published 2021).

The test concerns the target human A2A receptor (A2AR) (Homo sapiens, UniProt P29274). Briefly: Luciferase reporter assay (HEK293-A2AR-luc2p/CRE/Hygro cells, 3 nM CGS21680). It counts as cell-based. The note with it: 3 nM CGS21680, 5 h incubation. An outline of the steps:
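HEK293 cells stably expressing A2AR with a CRE-luc2P reporter were seeded in 1% FBS with 1 U/mL adenosine deaminase. After 18 h, cells got 3 nM CGS21680 plus antagonist at 0.1–10000 nM for 5 h, followed by a luciferase readout. IC50 is relative to the 3 nM CGS21680 signal, set as 100%.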
(In general: In a reporter assay the amount or activity of a reporter protein is the signal.)

Chain of human A2A receptor (A2AR) (P29274 whole entry): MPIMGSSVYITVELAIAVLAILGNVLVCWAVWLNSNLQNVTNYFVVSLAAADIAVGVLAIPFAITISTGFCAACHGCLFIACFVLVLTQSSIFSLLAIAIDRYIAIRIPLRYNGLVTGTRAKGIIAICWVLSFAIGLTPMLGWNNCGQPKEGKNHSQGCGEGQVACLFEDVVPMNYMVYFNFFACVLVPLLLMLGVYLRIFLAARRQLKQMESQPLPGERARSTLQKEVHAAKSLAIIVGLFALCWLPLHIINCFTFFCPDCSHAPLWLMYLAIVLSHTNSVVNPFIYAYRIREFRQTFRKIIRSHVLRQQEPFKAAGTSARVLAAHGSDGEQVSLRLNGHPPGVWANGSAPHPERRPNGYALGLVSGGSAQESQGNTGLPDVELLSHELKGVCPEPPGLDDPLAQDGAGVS

A word on the IC50: it is the concentration needed to halve the response being measured. `COCCOc1cc(F)c(N2CCN(C(=O)C(C)(c3ccccc3)n3ncc4c3nc(N)n3nc(-c5ccco5)nc43)CC2)cc1F` (stereo not shown) [Compound A65, 2-(5-amino-2-(furan-2-yl)-7H-pyrazolo[4,3-e][1,2,4]triazolo[1,5-c]pyrimidin-7-yl)-1-(4-(2,5-difluoro-4-(2-methoxyethoxy)phenyl)piperazin-1-yl)-2-phenylpropan-1-one] returned an IC50 of 6.4 nM.
Next, `CC(C(=O)N1CCN(c2ccc(OCCCN3CCOCC3)cc2)CC1)(c1ccccc1)n1ncc2c1nc(N)n1nc(-c3ccco3)nc21` (stereo not shown) [Compound A76, 2-(5-amino-2-(furan-2-yl)-7H-pyrazolo[4,3-e][1,2,4]triazolo[1,5-c]pyrimidin-7-yl)-1-(4-(4-(3-morpholinopropoxy)phenyl)piperazin-1-yl)-2-phenylpropan-1-one]: 7.3 nM; `Nc1nc2c(cnn2C(C(=O)N2CCN(c3ccc(OCCO)cc3)CC2)c2ccccc2)c2nc(-c3ccco3)nn12` (stereo not shown) [Compound A61, 2-(5-amino-2-(furan-2-yl)-7H-pyrazolo[4,3-e][1,2,4]triazolo[1,5-c]pyrimidin-7-yl)-1-(4-(4-(2-hydroxyethoxy)phenyl)piperazin-1-yl)-2-phenylethan-1-one]: 0.5 nM; `COCCOc1ccc(N2CCN(C(=O)C(c3ccccc3)n3ncc4c3nc(N)n3nc(-c5ccco5)nc43)CC2)c(F)c1` (single isomer, unassigned) [Compound A44b]: 0.5 nM.
As for `CCCCC(C(=O)N1CCN(c2ccc(OCCOCCOC)cc2)CC1)n1ncc2c1nc(N)n1nc(-c3ccco3)nc21` (single isomer, unassigned) [Compound A11a], the IC50 worked out at 4.6 nM. Against the preceding molecule, the IC50 is about 9.2-fold higher.
Next, `CC(C(=O)N1CCc2cc(F)ccc2C1)(c1ccccc1)n1ncc2c1nc(N)n1nc(-c3ccco3)nc21` (stereo not shown) [Compound B19, 2-(5-amino-2-(furan-2-yl)-7H-pyrazolo[4,3-e][1,2,4]triazolo[1,5-c]pyrimidin-7-yl)-1-(6-fluoro-3,4-dihydroisoquinolin-2(1H)-yl)-2-phenylpropan-1-one]: 112 nM.
The molecule `CNCCOc1ccc(N2CCN(C(=O)C(C)n3cc4c(nc(N)n5nc(-c6ccco6)nc45)n3)CC2)cc1` (stereo not shown) [Compound C24, 2-(5-amino-2-(furan-2-yl)-8H-pyrazolo[4,3-e][1,2,4]triazolo[1,5-c]pyrimidin-8-yl)-1-(4-(4-(2-(methylamino)ethoxy)phenyl)piperazin-1-yl)propan-1-one] gave a half-inhibitory concentration (IC50) of 35.5 nM.
`CC(C(=O)N1CCN(c2ccccc2C(=O)NC2CCCCC2)CC1)(c1ccccc1)n1ncc2c1nc(N)n1nc(-c3ccco3)nc21` (stereo not shown) [Compound A94, 2-(4-(2-(5-amino-2-(furan-2-yl)-7H-pyrazolo[4,3-e][1,2,4]triazolo[1,5-c]pyrimidin-7-yl)-2-phenylpropanoyl)piperazin-1-yl)-N-cyclohexylbenzamide] returned an IC50 of 3.8 nM.
As for `COCCOc1ccc(N2CCN(C(=O)C(C)(Cc3ccccc3)n3ncc4c3nc(N)n3nc(-c5ccco5)nc43)CC2)cc1` (stereo not shown) [Compound A97, 2-(5-amino-2-(furan-2-yl)-7H-pyrazolo[4,3-e][1,2,4]triazolo[1,5-c]pyrimidin-7-yl)-1-(4-(4-(2-methoxyethoxy)phenyl)piperazin-1-yl)-2-methyl-3-phenylpropan-1-one], the concentration for half-maximal inhibition (IC50) came out at 335 nM. This IC50 is about 88-fold higher than that of the molecule before.
Next, `COCCOc1ccc2c(c1)CN(C(=O)C(c1ccccc1)n1ncc3c1nc(N)n1nc(-c4ccco4)nc31)CC2` (stereo not shown) [Compound B14, 2-(5-amino-2-(furan-2-yl)-7H-pyrazolo[4,3-e][1,2,4]triazolo[1,5-c]pyrimidin-7-yl)-1-(7-(2-methoxyethoxy)-3,4-dihydroisoquinolin-2(1H)-yl)-2-phenylethan-1-one]: 5.7 nM; `COCCOc1ccc(N2CCN(C(=O)C(c3ccccc3)n3ncc4c3nc(N)n3nc(-c5ccco5)nc43)C[C@@H]2C)cc1` (stereo partly drawn) [Compound A46, 2-(5-amino-2-(furan-2-yl)-7H-pyrazolo[4,3-e][1,2,4]triazolo[1,5-c]pyrimidin-7-yl)-1-((S)-4-(4-(2-methoxyethoxy)phenyl)-3-methylpiperazin-1-yl)-2-phenylethan-1-one]: 2.9 nM.
Next, `CC(C(=O)N1CCN(c2cccc(C(=O)NC3CCCCC3)c2)CC1)(c1ccccc1)n1ncc2c1nc(N)n1nc(-c3ccco3)nc21` (stereo not shown) [Compound A90, 2-(5-amino-2-(furan-2-yl)-7H-pyrazolo[4,3-e][1,2,4]triazolo[1,5-c]pyrimidin-7-yl)-2-phenyl-1-(4-(3-(cyclohexanaminocarbonyl)phenyl)piperazin-1-yl)propan-1-one]: 14.1 nM; `COCCOc1ccc(N2CCN(C(=O)C(c3ccccc3F)n3ncc4c3nc(N)n3nc(-c5ccco5)nc43)CC2)cc1` (stereo not shown) [Compound A43, 2-(5-amino-2-(furan-2-yl)-7H-pyrazolo[4,3-e][1,2,4]triazolo[1,5-c]pyrimidin-7-yl)-2-(2-fluorophenyl)-1-(4-(4-(2-methoxyethoxy)phenyl)piperazin-1-yl)ethan-1-one]: 0.9 nM; `COCCOc1ccc(N2CCN(C(=O)C(c3cccc(C(F)(F)F)c3)n3ncc4c3nc(N)n3nc(-c5ccco5)nc43)CC2)cc1` (stereo not shown) [Compound A36, 2-(5-amino-2-(furan-2-yl)-7H-pyrazolo[4,3-e][1,2,4]triazolo[1,5-c]pyrimidin-7-yl)-1-(4-(4-(2-methoxyethoxy)phenyl)piperazin-1-yl)-2-(3-(trifluoromethyl)phenyl)ethan-1-one]: 7.7 nM.
Take `CC(C(=O)N1CCN(c2ccc(OCCN(C)C)cc2)CC1)n1cc2c(nc(N)n3nc(-c4ccco4)nc23)n1` (stereo not shown) [Compound C19, 2-(5-amino-2-(furan-2-yl)-8H-pyrazolo[4,3-e][1,2,4]triazolo[1,5-c]pyrimidin-8-yl)-1-(4-(4-(2-(dimethylamino)ethoxy)phenyl)piperazin-1-yl)propan-1-one]: the IC50 was 46.3 nM. Against the preceding molecule, the IC50 is about 6-fold higher.
The molecule `CCCC(C(=O)N1CCN(c2cc(F)c(OCCOC)cc2F)CC1)n1ncc2c1nc(N)n1nc(-c3ccco3)nc21` (stereo not shown) [Compound A54, 2-(5-amino-2-(furan-2-yl)-7H-pyrazolo[4,3-e][1,2,4]triazolo[1,5-c]pyrimidin-7-yl)-1-(4-(2,5-difluoro-4-(2-methoxyethoxy)phenyl)piperazin-1-yl)pentan-1-one] displayed an IC50 of 4.9 nM. Compared with the last molecule, the IC50 is about 9.4-fold lower.
Next, `Nc1nc2c(cnn2C(C(=O)N2CCN(c3ccc(F)cc3)CC2)c2ccccc2)c2nc(-c3ccco3)nn12` (stereo not shown) [Compound A49, 2-(5-amino-2-(furan-2-yl)-7H-pyrazolo[4,3-e][1,2,4]triazolo[1,5-c]pyrimidin-7-yl)-1-(4-(4-fluorophenyl)piperazin-1-yl)-2-phenylethan-1-one]: 3.2 nM; `COCCOc1ccc(N2CCN(C(=O)C(C)(c3ccccc3)n3ncc4c3nc(N)n3nc(-c5ccco5)nc43)C[C@@H]2C)cc1` (stereo partly drawn) [Compound A74, 2-(5-amino-2-(furan-2-yl)-7H-pyrazolo[4,3-e][1,2,4]triazolo[1,5-c]pyrimidin-7-yl)-1-((S)-4-(4-(2-methoxyethoxy)phenyl)-3-methylpiperazin-1-yl)-2-phenylpropan-1-one]: 5.1 nM; `C[C@@](C(=O)N1CCN(c2ccc(OCCCN3CCOCC3)cc2)CC1)(c1ccccc1)n1ncc2c1nc(N)n1nc(-c3ccco3)nc21` [Compound A76a, (S)-2-(5-amino-2-(furan-2-yl)-7H-pyrazolo[4,3-e][1,2,4]triazolo[1,5-c]pyrimidin-7-yl)-1-(4-(4-(3-morpholinopropoxy)phenyl)piperazin-1-yl)-2-phenylpropan-1-one]: 19.1 nM.
